Laboratory results as given in patent US20110275583A1, “Synergistic active compound combinations” (priority 2010, published 2011).
Read-outs that look alike come from different tables or passages of the source.

Legend:
Type in all cases: in vivo
[1] = tested on: green peach aphid (Myzus persicae); test: Myzus persicae test (spray treatment of infested cabbage leaves)
Text: (§1) The expected action for a given combination of two active compounds can be calculated as follows, using the formula of S. R. Colby, Weeds 15 (1967), 20-22: • If • X is the kill rate, expressed as % of the untreated control, when employing active compound A at an application rate of m g/ha or in a concentration of in ppm, • Y is the kill rate, expressed as % of the untreated control, when employing active compound B at an application rate of n g/ha or in a concentration of n ppm and • E is the kill rate, expressed as % of the untreated control, when employing active compounds A and B at application rates of m and n g/ha or in a concentration of m and n ppm, • then
(§2) If the actual kill rate exceeds the calculated value, the action of the combination is superadditive, i.e. a synergistic effect is present. In this case, the actually observed kill rate must exceed the value calculated using the above formula for the expected kill rate (E).
(§3) Solvent: 78 parts by weight of acetone • • 1.5 parts by weight of dimethylformamide
(§4) Emulsifier: 0.5 part by weight of alkylaryl polyglycol ether
(§5) To produce a suitable preparation of active compound, 1 part by weight of active compound is mixed with the stated amounts of solvent and emulsifier, and the concentrate is diluted with emulsifier-containing water to the desired concentration.
Cabbage leaves (Brassica oleracea) which are heavily infested by the green peach aphid (Myzus persicae) are treated by spraying with the active compound preparation of the desired concentration.
After the desired period of time, the kill in % is determined. 100% means that all of the aphids have been killed; 0% means that none of the aphids have been killed. The kill rates determined are entered into Colby's formula.

[2] = tested on: armyworm (Spodoptera frugiperda); test: Spodoptera frugiperda larvae test (sprayed cabbage leaves); conditions: Spodoptera frugiperda, single active compound
Text: as §1, §2, §3, §4, §5
Cabbage leaves (Brassica oleracea) are treated by being sprayed with the preparation of active compound of the desired concentration and are populated with the armyworm (Spodoptera frugiperda) while the leaves are still moist.
After the desired period of time, the kill in % is determined. 100% means that all caterpillars have been killed; 0% means that none of the caterpillars have been killed. The kill rates determined are entered, into Colby's formula.

[3] = tested on: larvae of the mustard beetle (Phaedon cochleariae); test: Phaedon cochleariae larvae test (sprayed cabbage leaves); conditions: single active compound
Text: as §1, §2, §3, §4, §5
Cabbage leaves (Brassica oleracea) are treated by spraying with the active compound preparation of the desired concentration and populated with larvae of the mustard beetle (Phaedon cochleariae) while the leaves are still moist.
After the desired period of time, the kill in % is determined. 100% means that all beetle larvae have been killed; 0% means that none of the beetle larvae have been killed. The kill rates determined are entered into Colby's formula.

[4] = tested on: greenhouse red spider mite (Tetranychus urticae); test: Tetranychus test, OP-resistant/spray treatment (bean leaf discs); conditions: single active compound
Text: as §1, §2, §3, §4, §5
Discs of bean leaves (Phaseolus vulgaris) which are infested by all stages of the greenhouse red spider mite (Tetranychus urticae) are sprayed with an active compound preparation of the desired concentration.
After the desired period of time, the effect in % is determined. 100% means that all of the spider mites have been killed; 0% means that none of the spider mites have been killed.

[5] = Myzus persicae, 144 h, single active compound, 6 d, read-out: Kill in % after 6 d
[6] = 48 h, 2 d, read-out: Kill in % after 2 d
[7] = Myzus persicae, 24 h, after 1 d, read-out: Kill in % after 1d
[8] = Phaedon cochleariae, 144 h, 20 g/ha, 6 d, read-out: Kill in % after 6 d
[9] = Tetranychus urticae, foliar, 144 h, 6 d, read-out: Kill in % after 6 d
[10] = Tetranychus urticae, foliar, 144 h, 4 g/ha, 6 d, read-out: Kill in % after 6 d
[11] = Phaedon cochleariae, 144 h, 6 d, read-out: Kill in % after 6 d
[12] = Myzus persicae, 144 h, 0.16 g/ha, single active compound, 6 d, read-out: Kill in % after 6 d
[13] = 144 h, 6 d, read-out: Kill in % after 6 d
[14] = Tetranychus urticae, foliar, 144 h, 20 g/ha, 6 d, read-out: Kill in % after 6 d
[15] = Tetranychus urticae, foliar, 48 h, 4 g/ha, 2 d, read-out: Kill in % after 2 d
[16] = Phaedon cochleariae, 48 h, 20 g/ha, 2 d, read-out: Kill in % after 2 d
[17] = Tetranychus urticae, foliar, 48 h, 2 d, read-out: Kill in % after 2 d
[18] = Myzus persicae, 24 h, 0.16 g/ha, after 1 d, read-out: Kill in % after 1d

N#Cc1ccc(CC(=NNC(=O)Nc2ccc(OC(F)(F)F)cc2)c2cccc(C(F)(F)F)c2)cc1 (mixture of isomers) [metaflumizone]
pest or weed control at 4 g/ha [1, 5]: 0%
pest or weed control at 100 g/ha [2, 6]: 0%

Cc1c(F)c(F)c(COC(=O)[C@@H]2[C@H](/C=C(\Cl)C(F)(F)F)C2(C)C)c(F)c1F (racemic) [tefluthrin]
pest or weed control at 4 g/ha [1, 7]: 70%
pest or weed control at 20 g/ha [3, 8]: 33%

Cc1cc(F)c(-n2nc(C(F)(F)F)nc2N)cc1[S+]([O-])CC(F)(F)F (stereo not shown) [1-{2-fluoro-4-methyl-5-[(2,2,2-trifluoroethyl)sulphinyl]phenyl}-3-(trifluoromethyl)-1H-1,2,4-triazole-5-amine]
pest or weed control at 0.8 g/ha [4, 9]: 0%
pest or weed control at 4 g/ha [4, 10]: 80%
pest or weed control at 100 g/ha [3, 11]: 0%

O=C1C=C(N(Cc2ccc(Cl)nc2)CC(F)F)CO1 [4-{[(6-chloropyrid-3-yl)methyl](2,2-difluoroethyl)amino}furan-2(5H)-one]
pest or weed control at 4 g/ha [1, 7]: 70%

C/C(=N\C#N)N(C)Cc1ccc(Cl)nc1 [acetamiprid]
pest or weed control at 0.16 g/ha [1, 12]: 0%
pest or weed control at 20 g/ha [3, 8]: 0%

CC1(C)C(/C=C/C(=O)OC(C(F)(F)F)C(F)(F)F)C1C(=O)OC(C#N)c1cccc(Oc2ccccc2)c1 (stereo not shown) [acrinathrin]
pest or weed control at 0.8 g/ha ([2]; 144 h, 0.8 g/ha, 6 d, read-out: Kill in % after 6 d): 0%

CC(C)N1C(=O)N(c2ccccc2)CS/C1=N\C(C)(C)C [buprofezin]
pest or weed control at 500 g/ha ([1]; Myzus persicae, 144 h, 500 g/ha, single active compound, 6 d, read-out: Kill in % after 6 d): 0%

CNC(=O)Oc1cccc2c1OC(C)(C)C2 [carbofuran]
pest or weed control at 4 g/ha [2, 13]: 0%

CCOCn1c(-c2ccc(Cl)cc2)c(C#N)c(Br)c1C(F)(F)F [chlorfenapyr]
pest or weed control at 100 g/ha [2, 6]: 50%

CC1(C)C(C=C(Cl)Cl)C1C(=O)OC(C#N)c1cccc(Oc2ccccc2)c1 (stereo not shown) [cypermethrin]
pest or weed control at 0.8 g/ha [1, 7]: 70%
pest or weed control at 20 g/ha [4, 14]: 0%
pest or weed control at 4 g/ha ([3]; Phaedon cochleariae, 48 h, 4 g/ha, 2 d, read-out: Kill in % after 2 d): 17%

CC(C)c1cc(Oc2ccccc2)cc(C(C)C)c1NC(=S)NC(C)(C)C [diafenthiuron]
pest or weed control at 20 g/ha [1, 7]: 0%
pest or weed control at 4 g/ha [4, 15]: 0%

CN/C(=N\[N+](=O)[O-])NCC1CCOC1 (stereo not shown) [dinotefuran]
pest or weed control at 4 g/ha [1, 7]: 0%
pest or weed control at 4 g/ha [1, 5]: 0%
pest or weed control at 20 g/ha [3, 16]: 17%

CC[S+]([O-])c1c(C#N)nn(-c2c(Cl)cc(C(F)(F)F)cc2Cl)c1N (stereo not shown) [ethiprole]
pest or weed control at 20 g/ha [1, 7]: 0%
pest or weed control at 20 g/ha [4, 14]: 0%
pest or weed control at 0.16 g/ha ([3]; Phaedon cochleariae, 144 h, 0.16 g/ha, 6 d, read-out: Kill in % after 6 d): 0%

Cc1nn(C)c(Oc2ccccc2)c1C=NOCc1ccc(C(=O)OC(C)(C)C)cc1 [fenpyroximate, Fenpyroximate]
pest or weed control at 20 g/ha [3, 16]: 0%

Cc1cc(C(F)(C(F)(F)F)C(F)(F)F)ccc1NC(=O)c1cccc(I)c1C(=O)NC(C)(C)CS(C)(=O)=O [flubendiamide, Flubendiamide]
pest or weed control at 0.8 g/ha [1, 5]: 0%
pest or weed control at 4 g/ha [2, 13]: 33%

O=C(NC(=O)c1c(F)cccc1F)Nc1ccc(Oc2ccc(C(F)(F)F)cc2Cl)cc1F [flufenoxuron]
pest or weed control at 20 g/ha [2, 13]: 33%

CC1(C)[C@H](/C=C(\Cl)C(F)(F)F)[C@@H]1C(=O)O[C@H](C#N)c1cccc(Oc2ccccc2)c1 [gamma-cyhalothrin]
pest or weed control at 0.032 g/ha ([1]; Myzus persicae, 24 h, 0.032 g/ha, after 1 d, read-out: Kill in % after 1d): 0%
pest or weed control at 0.8 g/ha [4, 17]: 0%

O=[N+]([O-])/N=C1\NCCN1Cc1ccc(Cl)nc1 [imidacloprid]
pest or weed control at 0.16 g/ha [1, 18]: 0%
pest or weed control at 20 g/ha [3, 8]: 33%

COC(=O)N(C(=O)N1COC2(C(=O)OC)Cc3cc(Cl)ccc3C2=N1)c1ccc(OC(F)(F)F)cc1 (stereo not shown) [indoxacarb]
pest or weed control at 0.8 g/ha ([3]; Phaedon cochleariae, 144 h, 0.8 g/ha, 6 d, read-out: Kill in % after 6 d): 0%
pest or weed control at 100 g/ha [2, 6]: 50%

O=C(NC(=O)c1c(F)cccc1F)Nc1cc(Cl)c(OC(F)(F)C(F)C(F)(F)F)cc1Cl (stereo not shown) [lufenuron]
pest or weed control at 100 g/ha [3, 11]: 33%
pest or weed control at 4 g/ha [2, 13]: 0%

COc1cccc(C(=O)NN(C(=O)c2cc(C)cc(C)c2)C(C)(C)C)c1C [methoxyfenozide]
pest or weed control at 20 g/ha [2, 6]: 33%

O=C(NC(=O)c1c(F)cccc1F)Nc1ccc(OC(F)(F)C(F)OC(F)(F)F)c(Cl)c1 (stereo not shown) [novaluron]
pest or weed control at 100 g/ha [3, 11]: 0%

CC(=O)N1C(=O)N(NCc2cccnc2)Cc2cc(C(F)(C(F)(F)F)C(F)(F)F)ccc21 [pyrifluquinazone]
pest or weed control at 100 g/ha ([4]; Tetranychus urticae, foliar, 144 h, 100 g/ha, 6 d, read-out: Kill in % after 6 d): 0%

CCC(C)(C)C(=O)OC1=C(c2ccc(Cl)cc2Cl)C(=O)OC12CCCCC2 [spirodiclofen]
pest or weed control at 4 g/ha [1, 5]: 0%
pest or weed control at 0.8 g/ha [4, 9]: 20%

Cc1cc(C)c(C2=C(OC(=O)CC(C)(C)C)C3(CCCC3)OC2=O)c(C)c1 [spiromesifen]
pest or weed control at 0.8 g/ha [1, 5]: 0%
pest or weed control at 20 g/ha ([4]; Tetranychus urticae, foliar, 48 h, 20 g/ha, 2 d, read-out: Kill in % after 2 d): 0%

CCOC(=O)OC1=C(c2cc(C)ccc2C)C(=O)N[C@]12CC[C@@H](OC)CC2 [spirotetramat]
pest or weed control at 0.16 g/ha [1, 12]: 0%

CC(c1ccc(C(F)(F)F)nc1)S(C)(=O)=NC#N (stereo not shown) [sulfoxaflor]
pest or weed control at 4 g/ha [4, 10]: 0%

CCc1nn(C)c(C(=O)NCc2ccc(C(C)(C)C)cc2)c1Cl [tebufenpyrad, Tebufenpyrad]
pest or weed control at 20 g/ha [1, 7]: 0%
pest or weed control at 0.8 g/ha [4, 17]: 0%
pest or weed control at 4 g/ha [4, 15]: 70%
pest or weed control at 100 g/ha [3, 11]: 0%

N#C/N=C1\SCCN1Cc1ccc(Cl)nc1 [thiacloprid]
pest or weed control at 0.16 g/ha [1, 18]: 0%
pest or weed control at 0.16 g/ha [1, 12]: 0%
pest or weed control at 20 g/ha [3, 8]: 0%

CN1COCN(Cc2cnc(Cl)s2)/C1=N/[N+](=O)[O-] [thiamethoxam]
pest or weed control at 0.16 g/ha [1, 18]: 0%
pest or weed control at 0.16 g/ha [1, 12]: 0%
pest or weed control at 20 g/ha [3, 8]: 50%

CS/C(C)=N\OC(=O)N(C)SN(C)C(=O)O/N=C(\C)SC [thiodicarb]
pest or weed control at 100 g/ha ([1]; Myzus persicae, 24 h, 100 g/ha, after 1 d, read-out: Kill in % after 1d): 0%

CC1(C)[C@H](C=C(Cl)Cl)[C@H]1C(=O)OCc1c(F)c(F)cc(F)c1F [transfluthrin]
pest or weed control at 4 g/ha [2, 13]: 33%

O=C(NC(=O)c1ccccc1Cl)Nc1ccc(OC(F)(F)F)cc1 [triflumuron]
pest or weed control at 4 g/ha [2, 13]: 17%

abamectin
Kill in % after 1d ([1]; 0.16 g/ha, after 1 d): 0%
Kill in % after 6 d ([1]; 0.16 g/ha, single active compound, 6 d): 0%
Kill in % after 2 d ([4]; 4 g/ha, 2 d): 0%
Kill in % after 6 d ([3]; 0.16 g/ha, 6 d): 0%

milbemectin
Kill in % after 6 d ([3]; 20 g/ha, 6 d): 0%

spinetoram
Kill in % after 2 d ([3]; 4 g/ha, 2 d): 50%

spinosad
Kill in % after 6 d ([4]; 20 g/ha, 6 d): 80%
Kill in % after 2 d ([3]; 4 g/ha, 2 d): 33%
